Common to all, as to type: biochemical
One test has as its target T1, HDAC2 (Homo sapiens, UniProt Q92769).
T1 construct: purchased Reaction Biology
Description: HDAC assay from Reaction Biology, fluorogenic substrate. As to conditions: 10-dose response curve; read-out: Compound IC50 HDAC2. The method, then: (§1) Compounds 1 and 3 were tested in a HDAC assay from Reaction Biology® against 10 different HDACs.
(§2) Base Reaction buffer: 50 mM Tris-HCl, pH8.0, 137 mM NaCl, 2.7 mM KCl, and 1 mM MgCl2,
(§3) Add fresh: 1 mg/ml BSA, 1% DMSO
(§4) Fluorogenic HDAC General Substrate (HDAC1, HDAC2, HDAC3, HDAC6, HDAC10, and HDAC11): 50 μM, Arg-His-Lys-Lys(Ac)-AMC
(§5) • (HDAC8 only substrate: 50 μM, Arg-His-Lys(Ac)-Lys(Ac))-AMC Class2A Substrate (HDAC4, HDAC5, HDAC7, and HDAC9): Boc-Lys(trifluoroacetyl)-AMC For SIRTs 1-3, general Class1 HDAC substrate and 500 μM NAD+ For SIRT5, Ac-Lys-succ and 500 μM NAD+ Reaction Procedure Deacetylation Step • 1. Delivered 2× enzyme in wells of reaction plate except in the control wells and added buffer to control wells. • 2. Delivered compounds in 100% DMSO into the enzyme mixture by Acoustic technology (Echo550; nanoliter range). Spin down and pre-incubation. • 3. Delivered 2× Substrate Mixture (Fluorogenic HDAC Substrate and co-factor if applicable) in all reaction wells to initiate the reaction. Spin and shake. • 4. Incubated for 30 min for Class 2A, 1 hr for HDAC1, 2, 3, and 6, and 2 hr for the rest of HDACs and SIRTs at 30° C. with seal. Development Step • 5. Added Developer with Trichostatin A (or Nicotinamide for SIRTs) to stop the reaction and to generate fluorescent color. • 6. The fluorescence that was generated was detected with excitation (Ex) at […] and emission (Em) at 460 nM by the EnVision Multilabel Plate Reader (PerkinElmer®, Santa Clara, CA, USA). • 7. IC50 values, presented in Table 1, were derived from a 10-dose response curve.

In the next test the target is T2, HDAC1 (Homo sapiens, UniProt Q13547).
T2 construct: purchased Reaction Biology
Described as above. The settings on record: 10-dose response curve; read-out: Compound IC50 HDAC1. As for the experimental part:
as §1, §2, §3, §4, §5

The target of another test is T3, HDAC3 (Homo sapiens, UniProt O15379).
T3 construct: purchased Reaction Biology
Described as above. The settings on record: 10-dose response curve; read-out: Compound IC50 HDAC3. The method, then:
as §1, §2, §3, §4, §5

Another test addresses T4, HDAC6 (Homo sapiens, UniProt Q9UBN7).
T4 sequence (Q9UBN7 1-1215): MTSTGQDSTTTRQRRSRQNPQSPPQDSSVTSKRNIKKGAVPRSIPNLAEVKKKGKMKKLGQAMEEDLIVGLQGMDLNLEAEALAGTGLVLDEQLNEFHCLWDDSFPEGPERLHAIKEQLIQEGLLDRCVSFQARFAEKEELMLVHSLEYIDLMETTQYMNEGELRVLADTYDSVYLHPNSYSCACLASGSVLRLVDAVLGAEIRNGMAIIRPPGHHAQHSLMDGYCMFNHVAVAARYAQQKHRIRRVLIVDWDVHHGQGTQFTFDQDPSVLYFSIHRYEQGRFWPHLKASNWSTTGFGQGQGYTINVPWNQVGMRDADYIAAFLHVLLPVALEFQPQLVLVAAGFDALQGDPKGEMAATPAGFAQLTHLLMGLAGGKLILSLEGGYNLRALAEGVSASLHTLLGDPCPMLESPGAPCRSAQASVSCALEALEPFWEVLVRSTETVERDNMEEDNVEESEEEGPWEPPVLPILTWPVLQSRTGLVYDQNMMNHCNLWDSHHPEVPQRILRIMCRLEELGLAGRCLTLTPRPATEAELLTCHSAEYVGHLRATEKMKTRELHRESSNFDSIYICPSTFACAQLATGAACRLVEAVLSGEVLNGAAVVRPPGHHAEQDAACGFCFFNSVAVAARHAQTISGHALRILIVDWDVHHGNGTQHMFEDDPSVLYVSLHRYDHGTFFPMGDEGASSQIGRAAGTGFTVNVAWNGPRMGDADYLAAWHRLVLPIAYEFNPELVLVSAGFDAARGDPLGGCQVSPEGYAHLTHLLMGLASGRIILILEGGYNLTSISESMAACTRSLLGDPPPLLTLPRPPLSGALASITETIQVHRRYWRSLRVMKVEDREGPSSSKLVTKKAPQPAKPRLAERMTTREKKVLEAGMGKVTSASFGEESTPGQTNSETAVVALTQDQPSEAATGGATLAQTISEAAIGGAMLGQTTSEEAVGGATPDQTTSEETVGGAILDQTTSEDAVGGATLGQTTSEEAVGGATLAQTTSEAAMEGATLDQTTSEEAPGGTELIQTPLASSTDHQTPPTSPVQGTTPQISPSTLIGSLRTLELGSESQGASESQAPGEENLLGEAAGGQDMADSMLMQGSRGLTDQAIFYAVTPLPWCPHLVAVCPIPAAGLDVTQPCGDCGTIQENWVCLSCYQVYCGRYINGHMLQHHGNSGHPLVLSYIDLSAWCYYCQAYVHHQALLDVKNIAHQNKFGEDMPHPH
The test is described as above. The settings on record: 10-dose response curve; read-out: Compound IC50 HDAC6. Further details: purchased Reaction Biology. As for the experimental part: as §1, §2, §3, §4
as §5, with “Added Developer with Trichostatin A (or Nicotinamide for SIRTs) to stop the reaction and to generate fluorescent color. • 6.” left out, “IC50 values, presented in Table 1, were derived from a 10-dose response curve.” left out

In the next test the target is T5, HDAC8 (Homo sapiens, UniProt Q9BY41).
T5 construct: purchased Reaction Biology
T5 sequence (Q9BY41 1-377): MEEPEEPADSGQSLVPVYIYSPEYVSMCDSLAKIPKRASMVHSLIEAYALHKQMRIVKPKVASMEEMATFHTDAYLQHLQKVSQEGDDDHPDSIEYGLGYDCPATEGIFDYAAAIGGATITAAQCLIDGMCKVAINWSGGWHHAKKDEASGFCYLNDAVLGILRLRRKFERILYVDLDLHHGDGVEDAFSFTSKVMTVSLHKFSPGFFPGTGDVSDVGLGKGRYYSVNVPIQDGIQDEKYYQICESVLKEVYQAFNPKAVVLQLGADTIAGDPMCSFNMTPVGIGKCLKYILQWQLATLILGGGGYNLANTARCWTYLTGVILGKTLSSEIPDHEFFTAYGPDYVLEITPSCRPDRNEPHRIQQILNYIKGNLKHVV
Description: HDAC assay from Reaction Biology, HDAC8 substrate. The settings on record: 10-dose response curve; read-out: Compound IC50 HDAC8. As for the experimental part: as §1, §2, §3
as §5, with “IC50 values, presented in Table 1, were derived from a 10-dose response curve.” left out

In another test the target is T6, HDAC5 (Homo sapiens, UniProt Q9UQL6).
T6 construct: purchased Reaction Biology
In words: HDAC assay from Reaction Biology, Class2A substrate. As to conditions: 10-dose response curve; read-out: Compound IC50 HDAC5. As for the experimental part: as §1, §2, §3
as §5, with “IC50 values, presented in Table 1, were derived from a 10-dose response curve.” left out

T1 sequence (Q92769 whole entry): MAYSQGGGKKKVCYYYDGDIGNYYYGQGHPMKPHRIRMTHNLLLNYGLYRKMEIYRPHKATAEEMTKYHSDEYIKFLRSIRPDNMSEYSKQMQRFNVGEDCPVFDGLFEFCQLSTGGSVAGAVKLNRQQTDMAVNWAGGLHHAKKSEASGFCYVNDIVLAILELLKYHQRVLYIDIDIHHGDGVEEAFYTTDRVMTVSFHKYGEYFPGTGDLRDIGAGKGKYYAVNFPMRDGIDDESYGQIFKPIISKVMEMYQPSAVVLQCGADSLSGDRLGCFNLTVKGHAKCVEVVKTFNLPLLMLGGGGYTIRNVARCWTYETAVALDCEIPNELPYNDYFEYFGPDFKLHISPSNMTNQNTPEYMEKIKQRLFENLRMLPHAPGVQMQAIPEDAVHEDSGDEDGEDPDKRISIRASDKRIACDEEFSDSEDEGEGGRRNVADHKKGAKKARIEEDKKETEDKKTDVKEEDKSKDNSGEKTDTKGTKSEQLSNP
T2 sequence (Q13547 whole entry): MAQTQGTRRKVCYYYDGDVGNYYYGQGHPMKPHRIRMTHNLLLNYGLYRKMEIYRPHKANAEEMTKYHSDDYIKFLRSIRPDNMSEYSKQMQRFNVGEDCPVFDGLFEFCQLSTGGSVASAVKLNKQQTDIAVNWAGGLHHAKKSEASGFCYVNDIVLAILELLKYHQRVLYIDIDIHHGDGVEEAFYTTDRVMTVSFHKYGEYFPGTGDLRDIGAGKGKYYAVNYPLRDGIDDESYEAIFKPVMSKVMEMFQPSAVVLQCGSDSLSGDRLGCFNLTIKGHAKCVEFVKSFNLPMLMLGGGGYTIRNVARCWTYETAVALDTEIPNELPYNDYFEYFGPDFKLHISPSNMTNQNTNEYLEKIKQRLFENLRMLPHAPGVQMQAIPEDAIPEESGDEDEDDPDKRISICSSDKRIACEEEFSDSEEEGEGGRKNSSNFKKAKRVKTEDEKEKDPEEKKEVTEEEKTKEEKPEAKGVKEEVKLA
T3 sequence (O15379 whole entry): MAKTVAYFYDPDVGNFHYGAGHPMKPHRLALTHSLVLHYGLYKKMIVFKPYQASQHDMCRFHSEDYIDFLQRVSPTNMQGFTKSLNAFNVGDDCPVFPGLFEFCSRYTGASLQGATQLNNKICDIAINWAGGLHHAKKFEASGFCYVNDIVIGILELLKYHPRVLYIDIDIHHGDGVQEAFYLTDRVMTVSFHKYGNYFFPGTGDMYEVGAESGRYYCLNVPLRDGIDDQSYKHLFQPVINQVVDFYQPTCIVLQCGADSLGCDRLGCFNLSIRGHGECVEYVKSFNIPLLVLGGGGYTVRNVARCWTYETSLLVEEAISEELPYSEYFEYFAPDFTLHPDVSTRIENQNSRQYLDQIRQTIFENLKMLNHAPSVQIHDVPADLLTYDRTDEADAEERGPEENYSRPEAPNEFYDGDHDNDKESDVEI
T3 sequence (Q9Y618 395-489 partner limits assumed): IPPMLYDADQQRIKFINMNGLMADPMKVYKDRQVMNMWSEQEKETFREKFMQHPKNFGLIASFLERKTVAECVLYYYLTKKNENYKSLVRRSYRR
T6 sequence (Q9UQL6 whole entry): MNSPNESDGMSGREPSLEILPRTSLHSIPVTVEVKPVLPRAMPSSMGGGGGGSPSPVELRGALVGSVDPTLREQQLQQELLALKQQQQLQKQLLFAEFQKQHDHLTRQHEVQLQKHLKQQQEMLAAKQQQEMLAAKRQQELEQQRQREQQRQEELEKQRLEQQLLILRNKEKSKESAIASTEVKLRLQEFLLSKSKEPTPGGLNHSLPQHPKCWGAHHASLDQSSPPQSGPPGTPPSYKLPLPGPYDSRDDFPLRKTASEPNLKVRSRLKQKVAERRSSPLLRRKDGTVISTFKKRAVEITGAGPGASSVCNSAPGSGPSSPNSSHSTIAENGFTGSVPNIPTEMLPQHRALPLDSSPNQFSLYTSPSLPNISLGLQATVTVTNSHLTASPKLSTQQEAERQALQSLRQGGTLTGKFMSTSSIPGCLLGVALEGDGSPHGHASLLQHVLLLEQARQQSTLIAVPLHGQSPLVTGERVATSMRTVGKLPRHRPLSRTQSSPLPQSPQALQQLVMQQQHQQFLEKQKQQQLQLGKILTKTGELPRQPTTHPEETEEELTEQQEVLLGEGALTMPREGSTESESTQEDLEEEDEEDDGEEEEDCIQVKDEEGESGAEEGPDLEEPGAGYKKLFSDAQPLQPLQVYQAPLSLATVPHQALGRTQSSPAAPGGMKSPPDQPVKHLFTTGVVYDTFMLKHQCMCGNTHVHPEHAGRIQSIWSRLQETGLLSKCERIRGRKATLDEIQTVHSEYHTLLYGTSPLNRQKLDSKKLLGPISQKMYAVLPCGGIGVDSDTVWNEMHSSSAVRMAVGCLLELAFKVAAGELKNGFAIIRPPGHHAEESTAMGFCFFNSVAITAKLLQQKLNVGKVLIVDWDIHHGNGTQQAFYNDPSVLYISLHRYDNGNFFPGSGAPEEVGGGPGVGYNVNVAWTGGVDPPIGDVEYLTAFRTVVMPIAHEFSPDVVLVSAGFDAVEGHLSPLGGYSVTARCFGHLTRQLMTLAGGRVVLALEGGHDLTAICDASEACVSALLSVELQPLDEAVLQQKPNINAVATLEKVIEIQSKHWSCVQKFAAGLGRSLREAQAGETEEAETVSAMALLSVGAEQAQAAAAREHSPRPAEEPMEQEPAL

A word on the IC50: it is the concentration that gives 50% inhibition. For `CN(C(=O)CCCCCCCNc1cccc2c1C(=O)N(C1CCC(=O)NC1=O)C2=O)c1ccc(NC(=O)CCCCCCC(=O)NO)cc1` (stereo not drawn) [Compound 3, N^1-(4-(8-((2-(2,6-dioxopiperidin-3-yl)-1,3-dioxoisoindolin-4-yl)amino)-N-methyloctanamido)phenyl)-N^8-hydroxyoctanediamide], the IC50 was determined as 14.4 µM at HDAC2; 4.41 µM on HDAC1; 3.43 µM at HDAC3; 0.0401 µM at HDAC6; 0.4 µM at HDAC8; 7.83 µM on HDAC5.
On to `CN(C(=O)CCCNc1cccc2c1C(=O)N(C1CCC(=O)NC1=O)C2=O)c1ccc(NC(=O)CCCCCCC(=O)NO)cc1` (stereo not drawn) [Compound 1, N^1-(4-(4-((2-(2,6-dioxopiperidin-3-yl)-1,3-dioxoisoindolin-4-yl)amino)-N-methylbutanamido)phenyl)-N^8-hydroxyoctanediamide], for which the IC50 on HDAC2 came out at 2.47 µM; on HDAC1, 1.04 µM; on HDAC3, 1.44 µM; on HDAC6 it was 0.0485 µM; on HDAC8 it was 0.621 µM; on HDAC5 it was 5.75 µM.

Values taken from US12569563B2, “Selective HDAC6 degraders and methods of use thereof” (DANA-FARBER CANCER INSTITUTE, INC., priority 2019, dated 2026).
